The values below come from paper PMC9229991, “Development of Reduced Peptide Bond Pseudopeptide Michael Acceptors for the Treatment of Human African Trypanosomiasis” (Molecules, 2022).

Test [1] has as its target T1, rhodesain (Trypanosoma brucei rhodesiense, UniProt Q95PM0).
T1 construct: made in house
Description: Rhodesain fluorogenic enzyme assay (Cbz-Phe-Arg-AMC substrate). The format is biochemical, T. b. rhodesiense. The procedure: All molecules were tested towards rhodesain utilizing fluorogenic assays in the presence of Cbz-Phe-Arg-AMC as substrate. […] Firstly, all the molecules were preliminarily screened at 100 µM (Figure 1A), and DMSO and E-64 were employed as the negative and positive control, respectively. Since SPR10–SPR19 passed the initial screening (% of inhibition > 80%), they were properly diluted, in accordance with what is reported in the literature.
Rhodesain was recombinantly expressed as previously described and Cbz-Phe-Arg-AMC (10 µM) was used as the fluorogenic substrate. The rhodesain-mediated hydrolysis released the fluorescent portion AMC, and fluorescence was measured at room temperature over a period of 30 min, using an Infinite 200 PRO microplate reader, and excitation (380 nm) and emission ([…]) filters were employed. The assay buffer was composed of 50 mM sodium acetate, 5 mM EDTA, 200 mM NaCl, and 0.005% Brij 35 with a pH equal to 5.5. Similarly, the enzyme buffer contained the same chemicals as the assay, with the exception of Brij, which was replaced by 1,4-dithiothreitol (DTT). All the SPR derivatives were solubilized in DMSO, which was also used as the negative control. E-64 protease inhibitor [76] was employed as the positive control. […] Each independent assay was performed twice and in duplicate, using 96 well-plates in a total volume of […]. The first order inactivation rate constants (kobs) were determined by means of nonlinear regression analysis of the progress curves (fluorescence (F) vs. time), and the equation F = A (1 − exp(−kobst)) + B was used. The obtained kobs values were fitted vs. the concentrations of tested inhibitors, and the equation kobs = kinact [I]/(Kiapp + [I]) provided the Kiapp and kinact values. Ki values were obtained using the equation Ki = Kiapp/(1 + [S]/Km), where Km is equal to 0.9 µM [77]. Grafit software was used for the nonlinear regression analysis to calculate kinact and Ki. The second-order rate constants k2nd were directly determined as k2nd = kinact/Ki.

The target of test [2] is T1, rhodesain. Further details: method as in PMID 31714776. To be noted: lead compound; read-out: Rhodesain (TbrCatL) Ki; cited from earlier work.
The target in test [3] is human Cathepsin L (hCatL) (Homo sapiens, UniProt P07711). The arrangement: method as in PMID 31714776. To be noted: unit printed in cell (PS1, Table 1); cited from earlier work.
In test [4] the test system is T. b. brucei. To be noted: 24 h; cited from earlier work.

T1 sequence (Q95PM0 entry or part of it): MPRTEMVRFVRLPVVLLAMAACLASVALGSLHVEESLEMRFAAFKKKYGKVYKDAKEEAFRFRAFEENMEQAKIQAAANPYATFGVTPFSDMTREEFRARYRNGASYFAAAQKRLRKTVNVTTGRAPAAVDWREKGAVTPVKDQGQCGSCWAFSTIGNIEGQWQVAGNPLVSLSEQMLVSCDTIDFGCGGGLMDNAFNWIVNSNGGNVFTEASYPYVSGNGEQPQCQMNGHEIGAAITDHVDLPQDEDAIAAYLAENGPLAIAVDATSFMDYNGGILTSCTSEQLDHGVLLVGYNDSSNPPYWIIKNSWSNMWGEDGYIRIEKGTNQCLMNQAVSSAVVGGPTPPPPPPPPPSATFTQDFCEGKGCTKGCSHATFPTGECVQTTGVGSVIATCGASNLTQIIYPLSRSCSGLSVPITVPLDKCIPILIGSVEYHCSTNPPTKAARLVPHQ
human Cathepsin L (hCatL), sequence (P07711 114-333): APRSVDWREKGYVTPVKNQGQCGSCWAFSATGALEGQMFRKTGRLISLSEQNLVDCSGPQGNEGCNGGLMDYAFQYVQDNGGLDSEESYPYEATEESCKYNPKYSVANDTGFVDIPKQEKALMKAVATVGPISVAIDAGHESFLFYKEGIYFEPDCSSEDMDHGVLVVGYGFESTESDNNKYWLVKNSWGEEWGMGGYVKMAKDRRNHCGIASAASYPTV

As to `CC(=O)C=CC(CCc1ccccc1)NC(=O)C(Cc1ccccc1)NC(=O)c1ccc(F)cc1` (centres unmarked) [PS-1], the Rhodesain kinac in test [1] (Cbz-Phe-Arg-AMC 10 µM, pH 5.5, room temperature) worked out at 0.00094 ± 0.00007 min⁻¹. The “Rhodesain k2nd” value in test [1] (k2nd = kinact/Ki) was 1.397e+07 ± 1.777e+06 M⁻¹ s⁻¹. The inhibition constant (Ki) (as a rule, the dissociation constant of the complex between target and ligand, obtained from inhibition or displacement) in test [2] is 0.0011 nM; in test [3], 1.9 ± 0.4 nM. The EC50 – broadly, the concentration giving half of the maximal effect – in test [4] was 5100 ± 1000 nM.
